Data taken from ChEMBL document CHEMBL1153179, “Optimization of orally bioavailable alkyl amine renin inhibitors” (Bioorg Med Chem Lett, 2010).

Tests used:
[1] = molecular target: T1, Renin (Homo sapiens, UniProt P00797); assay: Inhibition of trypsin-activated human recombinant renin
T1 sequence (P00797 whole entry): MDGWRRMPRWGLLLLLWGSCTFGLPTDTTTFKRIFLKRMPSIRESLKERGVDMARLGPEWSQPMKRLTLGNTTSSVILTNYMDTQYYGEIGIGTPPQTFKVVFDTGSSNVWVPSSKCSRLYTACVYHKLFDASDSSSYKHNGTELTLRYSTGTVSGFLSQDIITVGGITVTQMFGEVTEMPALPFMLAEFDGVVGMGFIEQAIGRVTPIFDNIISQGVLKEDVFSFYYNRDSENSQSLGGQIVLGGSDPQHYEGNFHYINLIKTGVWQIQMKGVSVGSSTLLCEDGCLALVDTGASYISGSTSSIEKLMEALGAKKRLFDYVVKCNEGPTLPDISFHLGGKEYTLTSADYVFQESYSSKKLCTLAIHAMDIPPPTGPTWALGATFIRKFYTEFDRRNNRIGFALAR

[2] = molecular target: T1, Renin; assay: Inhibition of human recombinant renin assessed as decrease in plasma renin activity by competitive radioimmunoassay in presence of human plasma
[3] = Cmax in rat at 10 mg/kg, po; type: ADME, organism-based; set-up: dose 10 mg/kg, route oral; settings: in vivo
[4] = Tmax in rat at 10 mg/kg, po; type: ADME, organism-based; set-up: dose 10 mg/kg, route oral; settings: in vivo
[5] = AUC (0 to t) in rat at 10 mg/kg, po; type: ADME, organism-based, Plasma; set-up: dose 10 mg/kg, route oral; settings: plasma
[6] = Half life in rat at 10 mg/kg, po; type: ADME, organism-based; set-up: dose 10 mg/kg, route oral; settings: in vivo
[7] = Clearance in rat at 2 mg/kg, iv; type: ADME, organism-based; set-up: dose 2 mg/kg, route intravenous; settings: in vivo
[8] = Volume of distribution at steady state in rat at 10 mg/kg, po or 2 mg/kg, iv; type: ADME, organism-based; settings: in vivo, read-out: Vdss
[9] = Oral bioavailability in rat at 10 mg/kg; type: ADME, organism-based; settings: in vivo
[10] = Clearance in cynomolgus monkey at 1 mg/kg, iv; type: ADME, organism-based, Macaca fascicularis; set-up: dose 1 mg/kg, route intravenous; settings: in vivo
[11] = Cmax in cynomolgus monkey at 2 mg/kg, po; type: ADME, organism-based, Macaca fascicularis; set-up: dose 2 mg/kg, route oral; settings: in vivo
[12] = Tmax in cynomolgus monkey at 2 mg/kg, po; type: ADME, organism-based, Macaca fascicularis; set-up: dose 2 mg/kg, route oral; settings: in vivo
[13] = Volume of distribution at steady state in cynomolgus monkey at 1 mg/kg, iv or 2 mg/kg, po; type: ADME, organism-based, Macaca fascicularis; settings: in vivo, read-out: VDss
[14] = Oral bioavailability in cynomolgus monkey at 2 mg/kg; type: ADME, organism-based, Macaca fascicularis; settings: in vivo
[15] = AUC (0 to 32 hrs) in cynomolgus monkey at 2 mg/kg, po; type: ADME, organism-based, Macaca fascicularis; set-up: time < 32 hr, dose 2 mg/kg, route oral; settings: plasma
[16] = Half life in cynomolgus monkey at 2 mg/kg, po; type: ADME, organism-based, Macaca fascicularis; set-up: dose 2 mg/kg, route oral; settings: in vivo

CNC[C@H](CC1CCCCC1)NC(=O)N1CCC[C@@H]([C@@H](OCCNC(=O)OC)c2cccc(F)c2)C1
IC50 [1]: 0.59 nM | IC50 [2]: 1.8 nM | Cmax [3]: 123 ng/mL | Tmax [4]: 2 h | AUC(0-t) [5]: 380 ng·h/mL | half-life [6]: 12.7 h | clearance [7]: 58 mL/min/kg | Vd [8]: 61 L/kg | bioavailability [9]: 22.1%

CNC[C@H](CC1CCCCC1)NC(=O)N1CCC[C@@H]([C@@](O)(CCCNC(=O)N(C)C)c2cccc(Cl)c2)C1
IC50 [1]: 2260 nM

CNC[C@H](CC1CCCCC1)NC(=O)N1CCC[C@@H]([C@@](O)(CCCNC(C)=O)c2cccc(Cl)c2)C1
IC50 [2]: 16 nM | clearance [7]: 23 mL/min/kg | Vd [8]: 117 L/kg

CCNC[C@H](CC1CCCCC1)NC(=O)N1CCC[C@@H]([C@@H](OCCNC(=O)OC)c2cccc(F)c2)C1
IC50 [1]: 2.1 nM | IC50 [2]: 18 nM

CCOC(=O)NCCC[C@@](O)(c1cccc(Cl)c1)[C@@H]1CCCN(C(=O)N[C@H](CNC)CC2CCCCC2)C1
IC50 [1]: 14 nM | IC50 [2]: 170 nM

CNC[C@H](CC1CCCCC1)NC(=O)N1CCC[C@@H]([C@@](O)(CCCNC(=O)NC)c2cccc(Cl)c2)C1
IC50 [1]: 46 nM | IC50 [2]: 141 nM

COC(=O)NCCO[C@@H](c1cccc(F)c1)[C@@H]1CCCN(C(=O)N[C@H](CN)CC2CCCCC2)C1
IC50 [1]: 0.58 nM | IC50 [2]: 3.3 nM

CCNC[C@H](CC1CCCCC1)NC(=O)N1CCC[C@@H]([C@@H](OCCNC(=O)OC)c2cccc(Cl)c2)C1
IC50 [1]: 0.87 nM | IC50 [2]: 7.7 nM

CNC[C@H](CC1CCCCC1)NC(=O)N1CCC[C@@H]([C@@H](OCCNC(=O)OC)c2cccc(Cl)c2F)C1
IC50 [1]: 0.61 nM | IC50 [2]: 3.4 nM

CNC[C@H](CC1CCCCC1)NC(=O)N1CCC[C@@H]([C@@](O)(CCCNC(N)=O)c2cccc(Cl)c2)C1
IC50 [1]: 31 nM | IC50 [2]: 200 nM

CCCC(=O)NCCC[C@@](O)(c1cccc(Cl)c1)[C@@H]1CCCN(C(=O)N[C@H](CNC)CC2CCCCC2)C1
IC50 [1]: 57 nM

CNC[C@H](CC1CCCCC1)NC(=O)N1CCC[C@@H]([C@@](O)(CCCCOC)c2cccc(Cl)c2)C1
AUC(0-t) [5]: 472 ng·h/mL | clearance [10]: 5.2 mL/min/kg | Cmax [11]: 116 ng/mL | Tmax [12]: 2.7 h | Vd [13]: 6.1 L/kg | bioavailability [14]: 16% | AUC(0-t) at 32 h [15]: 615 ng·h/mL | half-life [16]: 15 h

CCC(=O)NCCC[C@@](O)(c1cccc(Cl)c1)[C@@H]1CCCN(C(=O)N[C@H](CNC)CC2CCCCC2)C1
IC50 [1]: 1.5 nM | IC50 [2]: 21 nM

CNC[C@H](CC1CCCCC1)NC(=O)N1CCC[C@@H]([C@@H](OCCNC(=O)OC)c2ccc(F)c(F)c2)C1
IC50 [1]: 2.5 nM | IC50 [2]: 16.6 nM

CNC[C@H](CC1CCCCC1)NC(=O)N1CCC[C@@H]([C@@](O)(CCCNS(C)(=O)=O)c2cccc(Cl)c2)C1
IC50 [1]: 177 nM
